Assay results as given in patent US10219728B2, “Analyte monitoring: stabilizer for subcutaneous glucose sensor with incorporated antiglycolytic agent” (Abbott Diabetes Care Inc., priority 2005, dated 2019).
Read-outs that look alike come from different tables or passages of the source.

What was measured:
[1] = test system: blood clot (red blood cells adjacent to the sensor); assay: Glucose depletion at sensors inserted into blood clots, current response followed over time; assay type: cell-based; conditions: sensor with approximately 138 micrograms racemic D-/L-glyceraldehyde as thin outer coating, control sensors about 2 hour
Experimental: Glucose sensors are inserted into small silicon tubes containing the appropriate biological fluid. The tubes are maintained at about 37 degrees Celsius, and the glucose sensor is monitored.
Antiglycolytic sensors were prepared by modification of control sensors (FREESTYLE NAVIGATOR®) as follows. A coating solution was prepared from 250 mg/mL of a racemic mixture of L-glyceraldehyde and D-glyceraldehyde, and 150 mg/mL in polymer PC-1306 (Biocompatibles, PLC), the former suspended and the latter dissolved in ethanol. The resulting antiglycolytic sensors had approximately 138 micrograms of the racemic mixture of D- and L-glyceraldehydes incorporated as a thin, outer coating. Both these sensors and control sensors (no antiglycolytic agents added) were then inserted into blood clots, and the current response was followed over time.
The depletion is much delayed (up to about 12 hours) in the glyceraldehydes-containing sensors.

[2] = Antiglycolytic-modified sensor and control sensor implanted side by side in the arm of a non-diabetic subject; assay type: in vivo; conditions: FREESTYLE NAVIGATOR sensor with overcoat of about 55 micrograms L-glyceraldehyde, versus control sensor
Experimental: A further example of the use of an antiglycolytic sensor is provided by its use in an in vivo environment. In this example, a control sensor (FREESTYLE NAVIGATOR®) is inserted in the arm of a non-diabetic subject, adjacent to a similar sensor, which has been modified by the addition of an antiglycolytic agent, L-glyceraldehyde. A coating solution was made 200 mg/mL in L-glyceraldehyde, and 150 mg/mL in polymer PC-1306 (Biocompatibles, PLC), both dissolved in ethanol. The FREESTYLE NAVIGATOR® sensor was then modified by dipping twice into this coating solution, yielding an overcoat containing about 55 micrograms of L-glyceraldehyde. […] Glucose readings below 60 mg/dL are not anticipated in non-diabetic subjects, and are therefore considered to be anomalous, reflecting either (a) sensor malfunctions, or more likely (b) local inhomogeneities of glucose concentration (in the vicinity of a wound, for example) wherein the glucose concentration deviates substantially from the systemic value. Such deviations are observed with some regularity in control sensors, but are not observed in sensors modified with L-glyceraldehyde.

[3] = 50 mg/ml boric acid with 150 mg/ml L-glyceraldehyde and 150 mg/mL PC in outer membrane, stress at 56° C. for nine days, nonheparin blood
Experimental: An example of the use of an antiglycolytic sensor containing borate minerals, boric acid or any precursor thereof, is provided by its testing in an in vitro environment. 50 mg/ml boric acid was mixed with 150 mg/ml L-glyceraldehyde and 150 mg/mL PC in 100% ethanol. The sensor was dipped three times with a 10 minute interval. The sensor was then cured overnight, and subjected to stress at 56° C. for nine days and subsequently tested in nonheparin blood.

O=CC(O)CO (racemic) [glyceraldehydes, racemic mixture of L-glyceraldehyde and D-glyceraldehyde]
glucose depletion period [1]: up to 12 hours

O=C[C@@H](O)CO [L-glyceraldehyde]
large negative deviation in signal (values well below 60 mg/dL) during the night [2]: not observed

OB(O)O [boric acid]
high background current after stress [3]: significantly reduced
high background current after stress ([3]; listed as borate): reduced significantly
